{"source": "patent US20180228799A1", "about": "“Treatment for Neurological and Mental Disorders” (PSYCHOGENICS, INC., priority 2008, published 2018)", "key": {"[1]": {"tested_on": "symptoms of ADHD in adults", "assay": "ADHD-RS-IV, double-blind placebo-controlled crossover trial in adults with ADHD", "assay_type": "in vivo, human", "conditions": "for ADHD-RS-IV Inattention subscale, Baseline Score / ADHD-RS-IV Hyperactivity subscale, Baseline Score / ADHD-RS-IV Impulsivity subscale, Baseline Score / ADHD-RS-IV Total score, Baseline Score: before treatment", "description": "The primary objective of this study was to compare the effects of two doses of eltoprazine with placebo on symptoms of ADHD in adults. The primary efficacy parameter is the Attention-Deficit/Hyperactivity Disorder Rating Scale-IV (ADHD-RS-IV).\n(§1) This double-blind, multiple-dose, placebo-controlled, crossover study was conducted to assess the effects of 14 days of oral eltoprazine treatment in 48 adults with ADHD. Subjects eligible for study enrollment were to have met Diagnostic and Statistical Manual of Mental Disorders, Fourth Edition, Text Revision (DSM-IV-TR) criteria for ADHD. Assessment was to be made by clinical history, a Structured Clinical Interview for DSM-IV Axis Disorders-Research Version (SCID-RV), and a Conners' Adult ADHD Diagnostic Interview for DSM IV (CAADID).\n(§2) Oral doses of eltoprazine hydrochloride were 5 mg/day or 10 mg/day for 14 consecutive days (i.e., 2.5 or 5 mg twice daily (bid), respectively). Eltoprazine hydrochloride was administered in gelatin capsules with calcium hydrogen phosphate, 2H2O, maize starch NF, polyethylene glycol 6000 NF and magnesium stearate NF as excipients.\nPrimary endpoints were evaluated with the ADHD-RS-IV. After 14 days of treatment with placebo, 5 mg/day, or 10 mg/day eltoprazine, overall symptoms of ADHD were improved as measured by the ADHD-RS-IV, in which higher scores reflect greater impairment.\nADHD-RS-IV, CPT, and CGI-I scores were analyzed separately for those subjects whose baseline score was >40, indicating greater impairment. Twenty-two subjects had baseline ADHD-RS-IV total scores >40."}, "[2]": {"tested_on": "symptoms of ADHD in adults", "assay": "Clinical Global Impressions-Improvement (CGI-I), same trial", "assay_type": "in vivo, human", "conditions": "14 days; for CGI-I, percent of subjects showing improvement: b136 all subjects", "description": "as §1, §2\n(§3) Secondary endpoints were evaluated with the Clinical Global Impressions-Improvement (CGI-I) and Continuous Performance Test. (CPT). The CGI-I test is used to determine the […] of improvement."}, "[3]": {"tested_on": "symptoms of ADHD in adults", "assay": "Continuous Performance Test (CPT), same trial", "assay_type": "in vivo, human", "conditions": "5 or 10 mg/day, 14 days", "description": "as §1, §2, §3"}, "rats": {"tested_on": "rats", "assay": "Radial arm maze, scopolamine-induced working memory deficit", "assay_type": "in vivo", "conditions": "eltoprazine 0.3 mg/kg PO + scopolamine 0.5 mg/kg IP, ANOVA, FIG. 2", "description": "Several mazes, such as the radial arm maze (RAM) have been adapted to assess working memory in rodents. The RAM consists of eight long runways radiating out in a circle from a central compartment. In the RAM rats learn to retrieve food rewards from all or a sub-set of the arms. Working memory is assessed by measuring entries into previously baited arms within a given trial. […] Hippocampal lesions produce deficits both in adults and in the neonatal hippocampal lesion model of schizophrenia.\nFor training, food deprived rats were placed in an enclosed cylinder in the center of the maze for 20 s, prior to being allowed to explore the maze by removing the cylinder. Each radial arm is baited with a food reward. Animals were given a maximum of 5 minutes to retrieve all food rewards. This training continued once daily for three weeks until animals met the performance criteria for successful acquisition of the task.\nFour parameters were recorded to assess the performance of the rat: (1) the number of errors, which is defined as entering an arm that had already been entered, (2) the number of consecutive entries into un-visited arms before the first error occurred (entries to repeat), (3) latency to complete the task, and (4) the total number of arm entries before all food in the eight arms is collected or the maximum session duration is reached. […]"}, "5-HT1": {"tested_on": "5-HT1", "conditions": "selective with respect to all receptors other than 5-HT1; cited from earlier work"}, "5-HT1D receptor": {"tested_on": "5-HT1D receptor", "conditions": "compared with serotonin; Schipper et al.; cited from earlier work"}, "5-HT1B": {"target": "5-HT1B (Homo sapiens, UniProt P28222)", "sequence (P28222 whole entry, species assumed)": "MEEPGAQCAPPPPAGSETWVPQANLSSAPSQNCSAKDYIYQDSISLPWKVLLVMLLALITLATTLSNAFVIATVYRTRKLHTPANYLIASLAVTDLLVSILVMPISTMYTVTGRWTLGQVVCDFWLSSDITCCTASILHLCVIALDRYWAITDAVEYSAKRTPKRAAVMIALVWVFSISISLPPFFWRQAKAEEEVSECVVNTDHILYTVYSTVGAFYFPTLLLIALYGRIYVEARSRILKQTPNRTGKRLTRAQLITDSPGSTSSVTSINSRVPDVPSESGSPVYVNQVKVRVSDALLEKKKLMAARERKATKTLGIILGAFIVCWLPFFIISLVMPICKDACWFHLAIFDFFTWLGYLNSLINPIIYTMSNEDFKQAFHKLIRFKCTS", "conditions": "Schipper et al.; cited from earlier work"}, "5-HT1A/1B receptor": {"tested_on": "5-HT1A/1B receptor", "conditions": "cited from earlier work"}, "[4]": {"conditions": "5 mg/day oral, 14 days, all patients N = 38"}, "[5]": {"conditions": "5 mg/day oral, all patients N = 38"}, "[6]": {"conditions": "10 mg/day oral, 14 days, all patients N = 37"}, "[7]": {"conditions": "10 mg/day oral, all patients N = 37"}, "[8]": {"conditions": "subjects with baseline score >40 (more severe ADHD), 5 mg/day, 14 days"}}, "note": "“Also recorded” adds a separate entry of the source.", "data": [{"smiles": "c1cc2c(c(N3CCNCC3)c1)OCCO2", "note": "[Eltoprazine, 1-(2,3-dihydro-1,4-benzodioxanyl-5-yl) piperazine]", "values": [{"measurement": "ADHD-RS-IV Inattention subscale, Post Treatment Score", "setting": "[1]; 5 mg/day oral (2.5 mg bid), 14 days, all patients N = 38", "value": 14.5}, {"measurement": "ADHD-RS-IV Inattention subscale, Baseline Score", "setting": "[1]; 5 mg/day oral (2.5 mg bid), all patients N = 38", "value": 23.8}, {"measurement": "ADHD-RS-IV Hyperactivity subscale, Change from Baseline", "setting": "[1]; [4]", "value": "−5.9"}, {"measurement": "ADHD-RS-IV Hyperactivity subscale, Change from Baseline (percent decrease)", "setting": "[1]; [4]", "value": 47, "unit": "%"}, {"measurement": "ADHD-RS-IV Hyperactivity subscale, Post Treatment Score", "setting": "[1]; [4]", "value": 6.6}, {"measurement": "ADHD-RS-IV Impulsivity subscale, Change from Baseline", "setting": "[1]; [4]", "value": "−2.7"}, {"measurement": "ADHD-RS-IV Impulsivity subscale, Change from Baseline (percent decrease)", "setting": "[1]; [4]", "value": 44, "unit": "%"}, {"measurement": "ADHD-RS-IV Impulsivity subscale, Post Treatment Score", "setting": "[1]; [4]", "value": 3.4}, {"measurement": "ADHD-RS-IV Inattention subscale, Change from Baseline", "setting": "[1]; [4]", "value": "−9.4"}, {"measurement": "ADHD-RS-IV Inattention subscale, Change from Baseline (percent decrease)", "setting": "[1]; [4]", "value": 39, "unit": "%"}, {"measurement": "ADHD-RS-IV Total score, Change from Baseline", "setting": "[1]; [4]", "value": "−17.9"}, {"measurement": "ADHD-RS-IV Total score, Change from Baseline (percent decrease)", "setting": "[1]; [4]", "value": "(42%)"}, {"measurement": "ADHD-RS-IV Total score, Post Treatment Score", "setting": "[1]; [4]", "value": 24.5}, {"measurement": "ADHD-RS-IV Total score, Change from Baseline (percent decrease)", "setting": "[1]; 5 mg/day oral, 14 days, all patients N = 38, listed as eltoprazine", "value": 42, "unit": "%"}, {"measurement": "ADHD-RS-IV Hyperactivity subscale, Baseline Score", "setting": "[1]; [5]", "value": 12.5}, {"measurement": "ADHD-RS-IV Impulsivity subscale, Baseline Score", "setting": "[1]; [5]", "value": 6.1}, {"measurement": "ADHD-RS-IV Total score, Baseline Score", "setting": "[1]; [5]", "value": 42.4}, {"measurement": "ADHD-RS-IV Inattention subscale, Post Treatment Score", "setting": "[1]; 10 mg/day oral (5 mg bid), 14 days, all patients N = 37", "value": 14.8}, {"measurement": "ADHD-RS-IV Inattention subscale, Baseline Score", "setting": "[1]; 10 mg/day oral (5 mg bid), all patients N = 37", "value": 23.8}, {"measurement": "ADHD-RS-IV Hyperactivity subscale, Change from Baseline", "setting": "[1]; [6]", "value": "−5.5"}, {"measurement": "ADHD-RS-IV Hyperactivity subscale, Change from Baseline (percent decrease)", "setting": "[1]; [6]", "value": 43, "unit": "%"}, {"measurement": "ADHD-RS-IV Hyperactivity subscale, Post Treatment Score", "setting": "[1]; [6]", "value": 7.2}, {"measurement": "ADHD-RS-IV Impulsivity subscale, Change from Baseline", "setting": "[1]; [6]", "value": "−2.9"}, {"measurement": "ADHD-RS-IV Impulsivity subscale, Change from Baseline (percent decrease)", "setting": "[1]; [6]", "value": 47, "unit": "%"}, {"measurement": "ADHD-RS-IV Impulsivity subscale, Post Treatment Score", "setting": "[1]; [6]", "value": 3.2}, {"measurement": "ADHD-RS-IV Inattention subscale, Change from Baseline", "setting": "[1]; [6]", "value": "−9.0"}, {"measurement": "ADHD-RS-IV Inattention subscale, Change from Baseline (percent decrease)", "setting": "[1]; [6]", "value": 38, "unit": "%"}, {"measurement": "ADHD-RS-IV Total score, Change from Baseline", "setting": "[1]; [6]", "value": "−17.4"}, {"measurement": "ADHD-RS-IV Total score, Change from Baseline (percent decrease)", "setting": "[1]; [6]", "value": "(41%)"}, {"measurement": "ADHD-RS-IV Total score, Post Treatment Score", "setting": "[1]; [6]", "value": 25.3}, {"measurement": "ADHD-RS-IV Total score, Change from Baseline (percent decrease)", "setting": "[1]; 10 mg/day oral, 14 days, all patients N = 37, listed as eltoprazine", "value": 41, "unit": "%"}, {"measurement": "ADHD-RS-IV Hyperactivity subscale, Baseline Score", "setting": "[1]; [7]", "value": 12.8}, {"measurement": "ADHD-RS-IV Impulsivity subscale, Baseline Score", "setting": "[1]; [7]", "value": 6.1}, {"measurement": "ADHD-RS-IV Total score, Baseline Score", "setting": "[1]; [7]", "value": 42.7}, {"measurement": "Selective action on ADHD symptoms (inattention, hyperactivity, impulsivity)", "setting": "[1]; human clinical study in patients with ADHD", "value": "predominantly on inattention and hyperactivity and to a lesser degree impulsivity; also recorded: greater activity treating hyperactivity and inattention compared to impulsivity"}, {"measurement": "ADHD-RS-IV hyperactivity subscale score, decrease from baseline (improvement)", "setting": "[1]; [8]", "value": 56, "unit": "%"}, {"measurement": "ADHD-RS-IV impulsivity subscale score, decrease from baseline (improvement)", "setting": "[1]; [8]", "value": 55, "unit": "%"}, {"measurement": "ADHD-RS-IV inattention subscale score, decrease from baseline (improvement)", "setting": "[1]; [8]", "value": 54, "unit": "%"}, {"measurement": "ADHD-RS-IV total score, decrease from baseline", "setting": "[1]; [8]", "value": 55, "unit": "%"}, {"measurement": "CGI-I Mean Improvement (S.D.)", "setting": "[2]; 5 mg/day, n = 38", "value": "2.6 (1.2)"}, {"measurement": "CGI-I, Number of Patients Improved", "setting": "[2]; 5 mg/day, n = 38", "value": 26}, {"measurement": "CGI-I, Number of Patients Not Improved", "setting": "[2]; 5 mg/day, n = 38", "value": 12}, {"measurement": "CGI-I, percent of subjects showing improvement", "setting": "[2]; 5 mg/day, b141/b146 subgroup with baseline score >40", "value": 62, "unit": "%"}, {"measurement": "CGI-I Mean Improvement (S.D.)", "setting": "[2]; 10 mg/day, n = 37", "value": "2.7 (0.9)"}, {"measurement": "CGI-I, Number of Patients Improved", "setting": "[2]; 10 mg/day, n = 37", "value": 30}, {"measurement": "CGI-I, Number of Patients Not Improved", "setting": "[2]; 10 mg/day, n = 37", "value": 7}, {"measurement": "CGI-I, percent of subjects showing improvement", "setting": "[2]; 10 mg/day, b141 subgroup with baseline score >40", "value": 71, "unit": "%"}, {"measurement": "CGI reduction in severity score", "setting": "[2]; more severely affected population (baseline score >40), 5 mg/day", "value": 14, "unit": "%"}, {"measurement": "CPT findings", "setting": "[3]", "value": "did not result in any statistically significant findings"}, {"measurement": "Effect on scopolamine-induced decrease of entries to repeat", "setting": "rats", "value": "attenuated"}, {"measurement": "Binding selectivity", "setting": "5-HT1", "value": "selective 5-HT1 ligand"}, {"measurement": "Binding affinity for the 5-HT1D receptor", "setting": "5-HT1D receptor", "value": "relatively low affinity"}, {"measurement": "Binding affinity for 5-HT1B", "setting": "5-HT1B", "value": "roughly equipotent affinity"}, {"measurement": "Functional mode of action", "setting": "5-HT1A/1B receptor", "value": "mixed 5-HT1A/1B receptor agonist"}]}]}
